Test results as given in the NIST ThermoML archive (doi:10.1021/je800110r).
Several values for one entry are separate records, joined by “and”; a condition that tells them apart may be missing. Identical values can stand only once. Numbers after ± are expanded uncertainties.

Conditions: 313.14 K, Liquid, Vibrating tube method

Measured: mass density

CCCCCCCCCC [decane]
717.4 ± 2 kg/m3: 3234 kPa | 3277 kPa | 3305 kPa | 3343 kPa | 3360 kPa | 3404 kPa
718.2 ± 2 kg/m3: 4141 kPa | 4159 kPa | 4186 kPa | 4287 kPa
717.6 ± 2 kg/m3: 3468 kPa | 3499 kPa | 3518 kPa | 3576 kPa
717.5 ± 2 kg/m3: 3306 kPa | 3307 kPa | 3322 kPa | 3378 kPa | 3422 kPa | 3447 kPa
718.3 ± 2 kg/m3: 4203 kPa | 4224 kPa | 4245 kPa | 4267 kPa | 4309 kPa | 4328 kPa | 4434 kPa
718.1 ± 2 kg/m3: 3933 kPa | 3989 kPa | 4003 kPa | 4028 kPa | 4070 kPa | 4098 kPa | 4121 kPa
718 ± 2 kg/m3: 3843 kPa | 3895 kPa | 3915 kPa | 3970 kPa | 4048 kPa
718.4 ± 2 kg/m3: 4357 kPa | 4386 kPa | 4407 kPa | 4451 kPa
717.8 ± 2 kg/m3: 3598 kPa | 3674 kPa | 3693 kPa | 3713 kPa | 3739 kPa | 3768 kPa | 3850 kPa | 3856 kPa
717.9 ± 2 kg/m3: 3821 kPa | 3853 kPa | 3854 kPa | 3858 kPa | 3860 kPa | 3862 kPa | 3864 kPa | 3876 kPa | 3949 kPa
717.3 ± 2 kg/m3: 3137 kPa | 3192 kPa
717.9 ± 2 kg/m3 and 717.8 ± 2 kg/m3: 3865 kPa
718.5 ± 2 kg/m3: 4477 kPa | 4494 kPa | 4509 kPa
717.7 ± 2 kg/m3: 3549 kPa | 3629 kPa | 3654 kPa
